In paper PMC7658267, “Effects of CYP46A1 Inhibition on Long-Term-Depression in Hippocampal Slices ex vivo and 24S-Hydroxycholesterol Levels in Mice in vivo” (Frontiers in Molecular Neuroscience, 2020):

Tests used:
Design in all cases: CEREP off-target binding panel, per cent inhibition at 10 uM, n = 2
[1] = biological target: Human AR (Homo sapiens, UniProt P10275); experiment: biochemical
[2] = biological target: T1, Human A2A (Homo sapiens, UniProt P29274); experiment: biochemical
T1 construct: gene ADORA2A

[3] = biological target: T2, Human GR (Homo sapiens, UniProt P04150); experiment: biochemical
T2 construct: gene NR3C1

[4] = biological target: T3, Human MOP (Homo sapiens, UniProt P35372); experiment: biochemical
T3 construct: gene OPRM1

[5] = biological target: T4, Human M3 (Homo sapiens, UniProt P20309); experiment: biochemical
T4 construct: gene CHRM3

[6] = biological target: Human CCR1 (Homo sapiens, UniProt P32246); experiment: biochemical
[7] = biological target: T5, Human 5-HT3 (Homo sapiens, UniProt P46098); experiment: biochemical
T5 construct: gene HTR3A

[8] = biological target: T6, Human MC4 (Homo sapiens, UniProt P32245); experiment: biochemical
T6 construct: gene MC4R

[9] = biological target: T7, Human PXR (Homo sapiens, UniProt O75469); experiment: in vitro
T7 construct: gene NR1I2

[10] = biological target: T8, Human 5-HT7 (Homo sapiens, UniProt P34969); experiment: biochemical
T8 construct: gene HTR7

[11] = biological target: T9, Human 5-HT1A (Homo sapiens, UniProt P08908); experiment: biochemical
T9 construct: gene HTR1A

[12] = biological target: T10, Human NOP (Homo sapiens, UniProt P41146); experiment: biochemical
T10 construct: gene OPRL1

[13] = biological target: T11, Human KOP (Homo sapiens, UniProt P41145); experiment: biochemical
T11 construct: gene OPRK1

[14] = biological target: T12, Human NK3 (Homo sapiens, UniProt P29371); experiment: biochemical
T12 construct: gene TACR3

[15] = biological target: T13, Human VPAC1 (Homo sapiens, UniProt P32241); experiment: biochemical
T13 construct: gene VIPR1

[16] = biological target: T14, Human AT1 (Homo sapiens, UniProt P30556); experiment: biochemical
T14 construct: gene AGTR1

[17] = biological target: T15, Human A1 (Homo sapiens, UniProt P30542); experiment: biochemical
T15 construct: gene ADORA1

[18] = biological target: T16, Human H3 (Homo sapiens, UniProt Q9Y5N1); experiment: biochemical
T16 construct: gene HRH3

[19] = biological target: T17, Human M1 (Homo sapiens, UniProt P11229); experiment: biochemical
T17 construct: gene CHRM1

[20] = biological target: T18, Human 5-HT2B (Homo sapiens, UniProt P41595); experiment: biochemical
T18 construct: gene HTR2B

[21] = biological target: T19, Human H1 (Homo sapiens, UniProt P35367); experiment: biochemical
T19 construct: gene HRH1

[22] = biological target: T20, Human Y1 (Homo sapiens, UniProt P25929); experiment: biochemical
T20 construct: gene NPY1R

[23] = biological target: T21, Human β2 (Homo sapiens, UniProt P07550); experiment: biochemical
T21 construct: gene ADRB2

[24] = biological target: T22, Human EP4 (Homo sapiens, UniProt P35408); experiment: biochemical
T22 construct: gene PTGER4

[25] = biological target: T23, Human V1a (Homo sapiens, UniProt P37288); experiment: biochemical
T23 construct: gene AVPR1A

[26] = biological target: T24, Human NTS1 (Homo sapiens, UniProt P30989); experiment: biochemical
T24 construct: gene NTSR1
T24 sequence (P30989 whole entry): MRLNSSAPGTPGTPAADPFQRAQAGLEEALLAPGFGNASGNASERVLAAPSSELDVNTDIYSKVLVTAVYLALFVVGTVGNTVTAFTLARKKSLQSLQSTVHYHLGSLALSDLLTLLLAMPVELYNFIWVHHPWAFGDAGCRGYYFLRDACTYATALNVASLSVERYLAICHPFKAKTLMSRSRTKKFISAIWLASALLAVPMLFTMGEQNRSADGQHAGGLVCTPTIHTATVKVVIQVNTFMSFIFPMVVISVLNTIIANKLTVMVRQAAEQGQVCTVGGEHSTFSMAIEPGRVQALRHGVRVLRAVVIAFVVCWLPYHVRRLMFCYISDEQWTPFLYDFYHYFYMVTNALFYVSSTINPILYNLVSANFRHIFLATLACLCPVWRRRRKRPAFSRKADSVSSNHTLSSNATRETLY

T18 sequence (P41595 whole entry): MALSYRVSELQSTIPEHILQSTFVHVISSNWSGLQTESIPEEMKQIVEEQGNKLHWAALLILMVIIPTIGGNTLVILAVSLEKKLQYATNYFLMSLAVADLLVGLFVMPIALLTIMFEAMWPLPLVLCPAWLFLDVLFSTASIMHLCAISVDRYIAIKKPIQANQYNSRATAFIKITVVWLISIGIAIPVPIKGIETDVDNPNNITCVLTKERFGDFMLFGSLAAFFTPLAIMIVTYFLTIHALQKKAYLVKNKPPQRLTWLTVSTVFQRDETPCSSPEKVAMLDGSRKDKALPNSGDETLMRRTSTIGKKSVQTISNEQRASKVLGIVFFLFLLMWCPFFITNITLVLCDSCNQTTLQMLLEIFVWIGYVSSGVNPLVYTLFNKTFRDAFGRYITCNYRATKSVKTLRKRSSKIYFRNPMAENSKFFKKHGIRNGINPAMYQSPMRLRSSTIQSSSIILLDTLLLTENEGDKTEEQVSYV
T19 sequence (P35367 whole entry): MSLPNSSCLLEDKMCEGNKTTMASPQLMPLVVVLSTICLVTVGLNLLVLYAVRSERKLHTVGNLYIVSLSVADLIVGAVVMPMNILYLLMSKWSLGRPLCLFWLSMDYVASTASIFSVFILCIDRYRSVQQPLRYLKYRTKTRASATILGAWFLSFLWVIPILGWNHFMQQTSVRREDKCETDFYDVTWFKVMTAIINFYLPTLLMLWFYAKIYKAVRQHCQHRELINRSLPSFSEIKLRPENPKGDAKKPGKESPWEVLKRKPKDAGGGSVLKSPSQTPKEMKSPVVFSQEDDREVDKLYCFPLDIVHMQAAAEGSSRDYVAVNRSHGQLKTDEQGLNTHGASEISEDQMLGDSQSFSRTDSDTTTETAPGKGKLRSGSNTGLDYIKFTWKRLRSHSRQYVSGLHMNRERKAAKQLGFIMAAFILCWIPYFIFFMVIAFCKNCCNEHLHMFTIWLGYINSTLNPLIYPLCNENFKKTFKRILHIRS
T15 sequence (P30542 whole entry): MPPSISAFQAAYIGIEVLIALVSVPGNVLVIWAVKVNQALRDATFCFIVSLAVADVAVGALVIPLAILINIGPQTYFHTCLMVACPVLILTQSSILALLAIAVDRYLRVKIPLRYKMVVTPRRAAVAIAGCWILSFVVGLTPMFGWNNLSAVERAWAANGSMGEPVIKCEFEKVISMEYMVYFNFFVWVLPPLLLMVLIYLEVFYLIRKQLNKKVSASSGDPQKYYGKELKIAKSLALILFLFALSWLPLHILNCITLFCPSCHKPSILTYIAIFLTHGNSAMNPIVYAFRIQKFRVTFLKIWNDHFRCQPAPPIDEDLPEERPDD
T21 sequence (P07550 whole entry): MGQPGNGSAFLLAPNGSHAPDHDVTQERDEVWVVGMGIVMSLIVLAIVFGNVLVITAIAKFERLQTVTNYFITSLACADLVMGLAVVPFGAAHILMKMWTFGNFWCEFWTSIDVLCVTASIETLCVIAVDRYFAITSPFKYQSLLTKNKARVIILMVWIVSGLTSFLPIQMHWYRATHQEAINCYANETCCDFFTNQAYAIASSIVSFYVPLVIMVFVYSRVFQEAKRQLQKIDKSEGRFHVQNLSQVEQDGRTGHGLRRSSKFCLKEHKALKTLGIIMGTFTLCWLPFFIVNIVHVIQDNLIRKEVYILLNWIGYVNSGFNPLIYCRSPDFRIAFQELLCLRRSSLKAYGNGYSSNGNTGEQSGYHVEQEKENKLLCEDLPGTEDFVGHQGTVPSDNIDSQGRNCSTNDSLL
T1 sequence (P29274 whole entry): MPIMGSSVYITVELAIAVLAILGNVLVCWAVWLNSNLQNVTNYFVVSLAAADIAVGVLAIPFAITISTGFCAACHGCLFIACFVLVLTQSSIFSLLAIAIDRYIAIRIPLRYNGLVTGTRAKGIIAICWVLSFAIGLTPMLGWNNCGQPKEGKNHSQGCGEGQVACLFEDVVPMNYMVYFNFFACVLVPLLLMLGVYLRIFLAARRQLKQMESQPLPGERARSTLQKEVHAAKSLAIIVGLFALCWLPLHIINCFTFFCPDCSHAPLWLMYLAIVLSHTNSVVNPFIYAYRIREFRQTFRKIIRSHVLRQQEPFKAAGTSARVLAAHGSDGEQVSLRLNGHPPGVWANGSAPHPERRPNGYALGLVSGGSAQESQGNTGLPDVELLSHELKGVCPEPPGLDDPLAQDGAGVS
T12 sequence (P29371 whole entry): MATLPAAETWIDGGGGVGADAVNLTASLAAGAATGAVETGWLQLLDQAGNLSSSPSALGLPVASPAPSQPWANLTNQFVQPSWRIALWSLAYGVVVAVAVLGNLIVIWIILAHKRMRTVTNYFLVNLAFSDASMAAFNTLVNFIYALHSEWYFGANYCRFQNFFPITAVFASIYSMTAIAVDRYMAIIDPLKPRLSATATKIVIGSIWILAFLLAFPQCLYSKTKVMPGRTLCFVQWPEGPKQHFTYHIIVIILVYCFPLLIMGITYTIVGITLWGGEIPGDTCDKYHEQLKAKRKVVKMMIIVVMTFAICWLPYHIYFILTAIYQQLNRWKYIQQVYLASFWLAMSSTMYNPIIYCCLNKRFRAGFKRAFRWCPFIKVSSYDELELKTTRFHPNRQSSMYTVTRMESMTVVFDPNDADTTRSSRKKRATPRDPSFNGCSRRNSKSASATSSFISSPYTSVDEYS
T4 sequence (P20309 whole entry): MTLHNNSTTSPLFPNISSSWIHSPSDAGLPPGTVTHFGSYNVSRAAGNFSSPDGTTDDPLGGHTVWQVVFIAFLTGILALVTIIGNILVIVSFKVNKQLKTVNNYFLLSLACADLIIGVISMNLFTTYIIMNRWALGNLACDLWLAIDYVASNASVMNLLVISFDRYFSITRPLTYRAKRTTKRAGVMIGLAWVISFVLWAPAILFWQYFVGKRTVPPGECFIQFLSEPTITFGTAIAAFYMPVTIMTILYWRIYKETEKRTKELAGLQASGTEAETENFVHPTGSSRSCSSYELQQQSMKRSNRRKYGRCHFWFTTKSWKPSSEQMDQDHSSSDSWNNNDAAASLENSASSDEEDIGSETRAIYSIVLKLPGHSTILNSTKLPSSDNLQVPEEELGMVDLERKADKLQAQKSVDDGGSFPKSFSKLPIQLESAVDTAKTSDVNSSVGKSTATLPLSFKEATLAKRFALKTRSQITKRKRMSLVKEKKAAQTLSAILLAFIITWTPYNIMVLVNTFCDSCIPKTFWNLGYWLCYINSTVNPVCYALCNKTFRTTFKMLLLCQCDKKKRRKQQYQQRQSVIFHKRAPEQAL
T2 sequence (P04150 whole entry): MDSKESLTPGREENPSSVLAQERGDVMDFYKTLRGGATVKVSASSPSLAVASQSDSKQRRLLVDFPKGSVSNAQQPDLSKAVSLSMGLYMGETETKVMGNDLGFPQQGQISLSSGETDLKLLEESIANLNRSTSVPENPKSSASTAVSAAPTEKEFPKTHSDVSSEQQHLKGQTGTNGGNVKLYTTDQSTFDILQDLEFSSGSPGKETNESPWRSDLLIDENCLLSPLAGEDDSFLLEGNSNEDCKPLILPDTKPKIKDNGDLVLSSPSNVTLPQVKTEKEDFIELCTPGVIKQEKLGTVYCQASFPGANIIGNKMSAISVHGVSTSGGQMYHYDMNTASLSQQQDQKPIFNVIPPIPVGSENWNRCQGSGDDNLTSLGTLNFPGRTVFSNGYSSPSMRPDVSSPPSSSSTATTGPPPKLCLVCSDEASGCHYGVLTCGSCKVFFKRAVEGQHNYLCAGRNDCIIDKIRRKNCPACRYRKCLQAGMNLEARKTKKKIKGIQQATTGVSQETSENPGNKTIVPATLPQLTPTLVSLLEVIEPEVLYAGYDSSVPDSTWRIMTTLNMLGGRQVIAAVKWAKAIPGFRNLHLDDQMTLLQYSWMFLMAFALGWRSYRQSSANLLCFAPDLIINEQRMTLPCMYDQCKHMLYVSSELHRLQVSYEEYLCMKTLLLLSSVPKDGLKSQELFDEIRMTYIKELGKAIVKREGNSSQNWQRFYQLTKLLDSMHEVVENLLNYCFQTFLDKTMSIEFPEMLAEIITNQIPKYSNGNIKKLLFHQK
T17 sequence (P11229 whole entry): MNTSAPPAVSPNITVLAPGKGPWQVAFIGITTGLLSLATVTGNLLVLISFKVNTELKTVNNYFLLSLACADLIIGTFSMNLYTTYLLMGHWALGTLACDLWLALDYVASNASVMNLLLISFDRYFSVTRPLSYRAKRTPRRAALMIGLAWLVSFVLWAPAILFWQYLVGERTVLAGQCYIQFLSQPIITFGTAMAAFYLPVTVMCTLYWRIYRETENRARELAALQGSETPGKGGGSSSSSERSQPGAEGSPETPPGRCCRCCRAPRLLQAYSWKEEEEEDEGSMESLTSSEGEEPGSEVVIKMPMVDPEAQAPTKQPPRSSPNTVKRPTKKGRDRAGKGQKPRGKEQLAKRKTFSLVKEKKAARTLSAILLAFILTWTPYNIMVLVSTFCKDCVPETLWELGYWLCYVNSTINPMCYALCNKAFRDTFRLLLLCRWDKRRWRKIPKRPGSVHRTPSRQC

Structure (SMILES)	inhibition at 10 µM [1] [%]	inhibition at 10 µM [2] [%]	inhibition at 10 µM [3] [%]	inhibition at 10 µM [4] [%]	inhibition at 10 µM [5] [%]	inhibition at 10 µM [6] [%]	inhibition at 10 µM [7] [%]	inhibition at 10 µM [8] [%]	inhibition at 10 µM [9] [%]	inhibition at 10 µM [10] [%]	inhibition at 10 µM [11] [%]	inhibition at 10 µM [12] [%]	inhibition at 10 µM [13] [%]	inhibition at 10 µM [14] [%]	inhibition at 10 µM [15] [%]	inhibition at 10 µM [16] [%]	inhibition at 10 µM [17] [%]	inhibition at 10 µM [18] [%]	inhibition at 10 µM [19] [%]	inhibition at 10 µM [20] [%]	also measured
O=C(c1cnc2c(-c3cnco3)cc(C(F)(F)F)cn12)N1C2CCC1COC2 [compound 1, (3-oxa-8-azabicyclo[3.2.1]octan-8-yl)(8-(oxazol-5-yl)-6-(trifluoromethyl)imidazo[1,2-a]pyridin-3-yl)methanone]	-2	1.1	-8.6	-0.7	-9.1	2.6	11	4.5	4.8	5.4	12.4	1.4	8	4.1	5.5	-3.7	32	-3.3	3.3	-2.8	inhibition at 10 µM [21]: -12.9%; inhibition at 10 µM [22]: -2.9%; inhibition at 10 µM [23]: -8.1%; inhibition at 10 µM [24]: -22.4%; inhibition at 10 µM [25]: -7.4%; inhibition at 10 µM [26]: -9.7%
O=C(c1cccnc1-c1ccncn1)N1CCC(O)(Cc2ccc(F)cc2)CC1 [compound 2, (4-(4-fluorobenzyl)-4-hydroxypiperidin-1-yl)(2-(pyrimidin-4-yl)pyridin-3-yl)methanone]	3.1	-2.6	-0.6	2.5	7.3	-1.7	0.8	9.8	8.8	4.2	10.8	0.6	-5.2	1.1	-1.9	-3.2	12.2	-14.7	-8.6	-2.4	inhibition at 10 µM [21]: -13.3%; inhibition at 10 µM [22]: -16.3%; inhibition at 10 µM [23]: -2%; inhibition at 10 µM [24]: 1.8%; inhibition at 10 µM [25]: 2.8%; inhibition at 10 µM [26]: -12.2%
